In patent US7521474B2, “Biologically active lasonolide compounds” (priority 2003, dated 2009):
pIC50: −log10 of the molar value. ≈ marks a conversion by molar mass, not a printed value. Like-named read-outs stand apart in the source and are kept apart here.

Legend:
Format in all cases: cell-based
[1] = tested on: Candida albicans (ATCC strain 44506); experiment: Broth dilution assay (MIC); settings: 37° C.; for MIC: Candida albicans, ATCC44506, 24 h; for Minimum inhibitory concentration (MIC): 24 hours
Protocol: (§1) The antifungal activity of lasonolides C and F against Candida albicans (American Type Culture Collection strain 44506) was determined through the use of both agar diffusion and broth dilution assays.
Broth dilution assays were performed as standard 96-well microtiter assays in a total volume of 50 μl with a seeding density of 10^3 cells/ml. The concentration range for test compound ranged from 50 to 3 μg/ml as two-fold dilutions. […] The Minimum inhibitory concentration (MIC) of Lasonolide F (IV) against Candida albicans in SDB broth is 50 μg/ml while in RPMI broth it is greater than 50 μg/ml.

[2] = tested on: PANC-1 human pancreatic cancer; experiment: Antiproliferative MTT assay, PANC-1; settings: for pIC50: value in parentheses
Protocol: (§2) The lasonolide compounds were analyzed as to their effects on proliferation of A549 human lung adenocarcinoma, PANC-1 human pancreatic cancer and NCI-ADR-RES tumor cell lines. A549 human lung adenocarcinoma, PANC-1 pancreatic cancer cells and the NCI/ADR-RES (formerly MCF-7/ADR) human breast cell lines were obtained from the American Type Culture Collection (Rockville, Md.).
(§3) All cell lines are maintained in Roswell Park Memorial Institute (RPMI) medium 1640 supplemented with 100 U/mL penicillin 100 μg/ml streptomycin, 60 μg/ml L-glutamine, 18 mM HEPES, 0.05 mg/mL gentamycin and 10% fetal bovine serum (for the PANC-1 cell line the media is also supplemented with 100 μg/ml sodium pyruvate and 2.5 mg/ml glucose). Cell lines are cultured in plastic tissue culture flasks and kept in an incubator at 37° C. in humidified air containing 5% CO2.
(§4) To assess the antiproliferative effects of agents against the various cell lines, 200 μl cultures (96-well tissue culture plates, Nunc, Denmark) are first established at 3×10^4 cells/ml for adherent lines in tissue culture medium and incubated for 24 hr at 37° C. in 10% CO2 in air in order to allow cells to attach. A volume of 100 μl of medium is removed from each test well and 100 μl of medium containing serial, two-fold dilutions of the test agent is added to each well containing tumor cells. Medium without drug is also added to wells containing tumor cells which serve as no drug controls.
(§5) Positive drug controls are included to monitor drug sensitivity of each of the cell lines. These include varying dilutions of 5-fluorouracil, and doxorubicin. After 72-h exposure, tumor cells are enumerated using 3-[4,5-Dimethylthiazol-2-yl]-2,5-diphenyltetrazolium bromide (MTT) (M. C. Alley, et al., Cancer Res. 48:589, 1988) as follows:
(§6) A volume of 75 μl of warm growth media containing 5 mg/ml MTT is added to each well, cultures returned to the incubator, and left undisturbed for 3 hours. To spectrophotometrically quantitate formation of reduced formazan, plates are centrifuged (900×g, 5 minutes), culture fluids removed by aspiration, and 200 μl of acidified isopropanol (2 ml concentrated HCl/liter isopropanol) added per well. The absorbance of the resulting solutions is measured at 570 nm with a plate reader (Spectra II (Tecan Laboratories). The absorbance of tests wells is divided by the absorbance of drug-free wells, and the concentration of agent that results in 50% of the absorbance of untreated cultures (IC50) is determined by linear regression of logit-transformed data (D. J. Finney, Statistical Method in Biological Assay, third ed., pp.316-348, Charles Griffin Co., London, 1978). A linear relationship between tumor cell number and formazan production has been routinely observed over the range of cell densities observed in these experiments. The two standard drug controls (indicated above) are included in each assay to monitor the drug sensitivity of each of the cell lines and IC50 values are determined for each drug-cell combination.

[3] = tested on: NCI/ADR-RES (formerly MCF-7/ADR) human breast cell line; experiment: Antiproliferative MTT assay, NCI/ADR-RES; settings: 72-h exposure; for pIC50: value in parentheses
Protocol: as §2, §3, §4, §5, §6

[4] = tested on: A549 human lung adenocarcinoma; experiment: Antiproliferative MTT assay, A549; settings: for pIC50: value in parentheses
Protocol: as §2, §3, §4, §5, §6

[5] = tested on: Candida albicans (ATCC strain 44506); experiment: Agar (disk) diffusion assay; settings: 37° C., 24 hours
Protocol: as §1
Agar diffusion assays were performed using Sabouraud Dextrose agar plates seeded with the test microbe at 10^5/ml. Disks (6.35 mm, Schliecher and Schuell) were impregnated with 25 μg of test compound, allowed to dry and then placed on the agar surface. After incubation at 37° C. for 24 hours the zones of growth inhibition were determined. A control disk containing 100IU nystatin was run on the same plate as the test compound: the zone of inhibition was 28 mm.

[6] = Homo sapiens, PANC-1, 72-h exposure
[7] = Homo sapiens, A549, 72-h exposure

Question: For `Nc1nc(=O)[nH]cc1F` [5-fluorocytosine, reference compound], which MIC ([1]; antifungal control, broth not stated, read-out: MIC) is on record?
Answer: Its MIC is 0.62 µg/mL (≈ 4.8 µM).

Question: With `CC1=C/[C@H]2O[C@@H](C/C=C/C=C/C(=O)O[C@@H]3C[C@@H](/C=C/C\C=C\1)O[C@@H](C/C=C\CCO)[C@]3(C)CO)C[C@H](O)[C@H]2C` [Lasonolide D (II), Lasonolide D] as the compound, how does the IC50 [2, 6] read?
Answer: The IC50 was 2.6 µg/mL.

Question: What about the pIC50 [2, 6] of the same compound?
Answer: The pIC50 was 5.31.

Question: And the IC50 ([3]; Homo sapiens, NCI/ADR-RES)?
Answer: The IC50 was > 5 µg/mL.

Question: What about the pIC50 ([3]; Homo sapiens, NCI/ADR-RES) of the same compound?
Answer: The pIC50 was < 5.05.

Question: And the IC50 [4, 7]?
Answer: Its IC50 is 2.4 µg/mL.

Question: And the pIC50 [4, 7]?
Answer: The pIC50 was 5.35.

Question: For `CCOC(=O)C(O)C/C=C\C[C@@H]1O[C@@H]2/C=C/C/C=C/C(C)=C\[C@H]3O[C@@H](C/C=C/C=C/C(=O)O[C@H](C2)[C@@]1(C)CO)C[C@H](O)[C@H]3C` (some centres unmarked) [Lasonolide E (III), Lasonolide E], which IC50 [2, 6] is on record?
Answer: Its IC50 is 0.35 µg/mL.

Question: What about the pIC50 [2, 6] of the same compound?
Answer: The pIC50 was 6.24.

Question: And the IC50 ([3]; Homo sapiens, NCI/ADR-RES)?
Answer: Its IC50 is > 5 µg/mL.

Question: And the pIC50 ([3]; Homo sapiens, NCI/ADR-RES)?
Answer: Its pIC50 is < 5.10.

Question: And the IC50 [4, 7]?
Answer: The IC50 was 0.19 µg/mL.

Question: And the pIC50 [4, 7]?
Answer: The pIC50 was 6.51.

Question: Which MIC ([1]; RPMI broth, read-out: Minimum inhibitory concentration (MIC)) does the source give for `CC1=C/[C@H]2O[C@@H](C/C=C/C=C/C(=O)O[C@@H]3C[C@@H](/C=C/C\C=C\1)O[C@@H](C/C=C\CC(O)C(=O)O)[C@]3(C)CO)C[C@H](O)[C@H]2C` (some centres unmarked) [Lasonolide F (IV), Lasonolide F] here?
Answer: Its MIC is > 50 µg/mL.

Question: And the MIC ([1]; SDB broth, read-out: Minimum inhibitory concentration (MIC))?
Answer: Its MIC is 50 µg/mL (≈ 85.2 µM).

Question: What about the zone of inhibition at 25 µg/mL ([5]; Candida albicans, ATCC44506, tested at 25 μg/ml (disk 6.35 mm impregnated with 25 μg), read-out: growth inhibitory zone) of the same compound?
Answer: The zone of inhibition at 25 µg/mL was 10 mm.

Question: With `C[C@@H]1[C@H](O)[C@@H](C)/C=C/C=C/CC/C=C/C=C/C=C/C=C/C(O[C@H]2O[C@H](C)[C@@H](O)[C@H](N)[C@@H]2O)CC2O[C@](O)(CC(O)C(O)CCC(O)CC(O)CC(O)CC(=O)O[C@H]1C)CC(O)C2C(=O)O` (some centres unmarked) [nystatin, reference compound] as the compound, how does the zone of inhibition ([5]; control disk containing 100IU, same plate) read?
Answer: Its zone of inhibition is 28 mm.

Question: Which “PANC-1 IC50” value ([2]; 72-h exposure) does the source give for Lasonolide C [Lasonolide C (I)] here?
Answer: Its value is 0.27 µg/mL.

Question: What about the pIC50 ([2]; 72-h exposure) of the same compound?
Answer: Its pIC50 is 6.42.

Question: What about the “NCI ADR-RES IC50” value [3] of the same compound?
Answer: Its value is 0.8 µg/mL.

Question: And the pIC50 [3]?
Answer: The pIC50 was 5.95.

Question: And the “Minimum inhibitory concentration (MIC)” value ([1]; RPMI broth)?
Answer: The value was 12.5 µg/mL.

Question: What about the “Minimum inhibitory concentration (MIC)” value ([1]; SDB broth) of the same compound?
Answer: The value was 5 µg/mL.

Question: What about the “A549 IC50” value ([4]; 72-h exposure) of the same compound?
Answer: Its value is 0.095 µg/mL.

Question: And the pIC50 ([4]; 72-h exposure)?
Answer: The pIC50 was 6.89.

Question: And the growth inhibitory zone ([5]; tested at 25 μg/ml (disk 6.35 mm impregnated with 25 μg))?
Answer: The growth inhibitory zone was 15 mm.
